Tests used:
ChREBP = test: Hepatic nuclear ChREBP protein levels in PDK inhibitor-treated DIO mice; format: in vivo; settings: 40 mg/kg/day by mini-pumps for 5 days
From the text: The antibody (from Santa Cruz) against the 95-kilodalton ChREBP is highly specific; no signal was detected in hepatic nuclear fractions from ChREBP KO mice. The reduced nuclear ChREBP protein levels correlate with curtailed liver-type pyruvate kinase (LPK) (FIG. 11B), the marker glycolytic enzyme tightly regulated by ChREBP^5. The increased PDC flux is indicated by diminished phosphorylation of the decarboxylase/dehydrogenase (E1)-α subunit of this enzyme complex (FIG. 11B); while the expression of this subunit is not affected (not shown). The glucose-sensitive transcription factor ChREBP discovered and cloned by the Uyeda group in 2001 (Yamashita et al., 2001) has emerged as a central regulator of lipogenesis in liver (Uyeda and Repa, 2006; Filhoulaud et al., 2013; Denechaud et al., 2008) and β-cells (Cha-Molstad et al., 2009; Kibbe et al., 2013) at the transcriptional level (Uyeda and Repa, 2006; Filhoulaud et al., 2013; Denechaud et al., 2008). […] Therefore, the inventors propose that increased glucose oxidation through PDC flux lowers hepatic glucose concentrations and attenuates nuclear ChREBP-mediated de novo lipogenesis in liver (FIG. 12A). […]

DIO mice = test: Blood biochemistry of DIO mice (lactate, cholesterol, triglycerides); format: in vivo; settings: 70 mg/kg/day
Method: Six- to eight-week old C57BL/6J male mice were obtained from the local campus breeding colony at UT Southwestern Medical Center (Dallas, Tex.) and randomized into two groups: vehicle- and PS10-treated. Prior to the treatment, mice were fed with a 60% high-fat diet, which contained 32% saturated and 68% unsaturated fat (catalog number: D12492, Research Diet Inc. New Brunswick, N.J.), for eight to ten weeks to produce DIO animals. PS-10 was dissolved in 100% DMSO and then diluted to make a 10% DMSO aqueous solution containing 17.5% (w/v) (2-hydroxypropyl)-β-cyclodextrin for delivery. Animals were dosed at mid-day by intraperitoneal (IP) injections at 70 mg/kg using 1-ml syringe and 30-gauge needle. The length of the treatment is indicted in each experiment. At 10 h after the last injection, animals were euthanized using carbon dioxide asphyxiation followed by cervical dislocation and dissection. Blood was harvested by cardiac puncture and stored on ice. Acidified citrate dextrose (ACD) was used as an anticoagulant. Immediately after blood collection, heart, liver, kidneys and both hind-leg quadriceps muscles were removed and snap frozen in liquid nitrogen. Average ischemia time before organ harvest was about 2 to 3 min. Blood was centrifuged in an Eppendorf 5415R refrigerated microcentrifuge at 9,300×g for 5 min to isolate plasma, which was subsequently stored at −80° C.
Glucose levels were determined with Sigma Diagnostics Glucose (Sigma Aldrich, St. Louis, Mo.). The levels of lactate, cholesterol, and triglyceride were measured by Vitros 250 blood chemistry analyzer (Johnson & Johnson Inc.) in the Metabolic Phenotyping Core in UT Southwestern Medical Center.

PDK2 = PDK2 (Homo sapiens, UniProt Q15119); test: Isothermal titration calorimetry (ITC), binding to PDK2; design: made in house; settings: ITC; read-out: Kd, nM for PDK2
Method: Recombinant human PDK2 was expressed and purified as a N terminal His6-tagged SUMO fusion protein with a tobacco-etch-virus protease (TEV) cleavage site in front of the N-terminal PDK2 sequence (26), and was used directly for the activity assay and binding affinity analyses. […] The purified protein was concentrated to 35-40 mg/ml and stored at −80° C. in small aliquots. Recombinant human PDK1, PDK3 and PDK4 were expressed and purified as described previously (26).
The PDK2 or Hsp90 N-terminal domain protein was dialyzed against one liter of the dialysis buffer containing 50 mM Tris-Cl, pH 7.5, 50 mM KCl, 1 mM MgCl2, and 0.5 mM β-mercaptoethanol. […] All of the ITC data were initially analyzed by the NITPIC program (32) to construct the baseline, followed by curve-fitting in Origin 7 to obtain binding parameters.

human PDK1 = biological target: T1, human PDK1 (Homo sapiens, UniProt Q15118); test: Assay for inhibition of PDK activity, PDK1; format: biochemical; settings: absence of E2/E3BP core (−)
T1 construct: made in house
T1 sequence (Q15118 29-436): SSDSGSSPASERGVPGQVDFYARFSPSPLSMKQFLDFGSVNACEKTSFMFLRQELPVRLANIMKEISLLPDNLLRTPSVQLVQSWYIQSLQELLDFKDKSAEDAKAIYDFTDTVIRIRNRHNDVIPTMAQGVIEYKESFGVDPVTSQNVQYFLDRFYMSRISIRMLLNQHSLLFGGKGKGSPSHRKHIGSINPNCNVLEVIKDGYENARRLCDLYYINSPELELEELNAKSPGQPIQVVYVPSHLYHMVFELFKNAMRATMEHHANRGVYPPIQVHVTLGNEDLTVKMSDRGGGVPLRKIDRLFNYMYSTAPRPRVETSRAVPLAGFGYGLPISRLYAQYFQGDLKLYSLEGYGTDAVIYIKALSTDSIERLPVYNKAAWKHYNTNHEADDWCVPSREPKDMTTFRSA
Method: Recombinant human PDK2 was expressed and purified as a N terminal His6-tagged SUMO fusion protein with a tobacco-etch-virus protease (TEV) cleavage site in front of the N-terminal PDK2 sequence (26), and was used directly for the activity assay and binding affinity analyses. For crystallization, the protein was subjected to a TEV-protease digestion, and the untagged PDK2 protein was purified on a Superdex 200 column in 20 mM Tris-HCl (pH 8.0), 150 mM NaCl and 5 mM DTT. The purified protein was concentrated to 35-40 mg/ml and stored at −80° C. in small aliquots. Recombinant human PDK1, PDK3 and PDK4 were expressed and purified as described previously (26).
. The remaining steps were described previously (26). IC50 values were obtained by the curve fitting of inhibition isotherms using Prism 6 (GraphPad software, Inc.).

PDC = PDC flux in perfused hearts from DIO mice by hyperpolarized 13C NMR; settings: single dose 70 mg/kg IP, 8-hr
Method: Metabolism of [1-^13C]pyruvate to [1-^13C]alanine, [1-^13C]lactate, H^13CO3^− and ^13CO2 were detected in real time by ^13C NMR spectra, following the injection of 2 mM HP [1-^13C]pyruvate into perfused heart (FIG. 10A).

[1] = Half-life in vitro in hepatic S9 fractions; format: in vitro ADME; settings: data not shown
[2] = Pharmacokinetic studies in mice after IP dosing; format: in vivo; settings: 70 mg/kg IP, male C57BL/6J mice, plasma
Method: Twenty-one male C57BL/6J mice were dosed IP with 70 mg/kg PS-10, 0.2 ml/mouse formulated as 10% DMSO/20% water/70% of 25% (2-hydroxypropyl)-β-cyclodextrin for determination of PS-10 PK. Twenty-one female CD-1 mice were dosed IP with 20 mg/kg PS-8, 0.2 ml/mouse formulated as 5% ethanol and 95% of 0.1 M sodium bicarbonate pH 9.0 for determination of PS-8 PK. Animal (n=3) were sacrificed and whole blood was harvested for each time point. Plasma was processed from whole blood by centrifugation of the ACD treated blood for 10′ at 10,000 rpm in a standard centrifuge. The analytical processing of blood samples and pharmacokinetics studies using LC/MS/MS were as described previously with LC/MS/MS methods optimized for detection of PS-10 and PS-8 (33).

mature SREBP-1c = test: Hepatic nuclear mature SREBP-1c protein level in PDK inhibitor-treated DIO mice; format: in vivo; settings: 40 mg/kg/day by mini-pumps for 5 days

O=S(=O)(c1ccc(O)cc1O)N1Cc2cc(O)cc(O)c2C1 [PS10, 2-((2,4-dihydroxyphenyl)sulfonyl)isoindoline-4,6-diol]
ChREBP protein levels in hepatic nuclear fractions (ChREBP): drastically decreased
plasma cholesterol vs vehicle-treated (DIO mice): significantly lower
plasma lactate vs vehicle-treated (DIO mice): significantly lower
plasma triglycerides vs vehicle-treated (DIO mice): significantly lower
Kd (PDK2): 239 nM
IC50 (human PDK1): 2.07 µM
cardiac PDC flux in DIO mice (PDC): smaller increase
half-life [1]: > 4 h
CL/F [2]: 0.741 mL/min
AUC(0-t) ([2]; mouse): 31800 ng·h/mL
Cmax ([2]; mouse): 32400 ng/mL
Tmax ([2]; mouse): 0.167 h
half-life ([2]; mouse, read-out: Terminal T1/2): 2.68 h
Vd/F ([2]; mouse, read-out: Vz/F): 0.172 L
protein level of nuclear mature SREBP-1c (mature SREBP-1c): unchanged
